Data on 22 molecules can be found in ChEMBL document CHEMBL3400143, “Discovery and hit-to-lead optimization of 2,6-diaminopyrimidine inhibitors of interleukin-1 receptor-associated kinase 4” (Bioorg Med Chem Lett, 2015).

Calls of active or inactive are those of the source. The rule behind the calls is not given here.

The target in assay [1] is T1, Interleukin-1 receptor-associated kinase 4 (Homo sapiens, UniProt Q9NWZ3).
T1 sequence (Q9NWZ3 whole entry): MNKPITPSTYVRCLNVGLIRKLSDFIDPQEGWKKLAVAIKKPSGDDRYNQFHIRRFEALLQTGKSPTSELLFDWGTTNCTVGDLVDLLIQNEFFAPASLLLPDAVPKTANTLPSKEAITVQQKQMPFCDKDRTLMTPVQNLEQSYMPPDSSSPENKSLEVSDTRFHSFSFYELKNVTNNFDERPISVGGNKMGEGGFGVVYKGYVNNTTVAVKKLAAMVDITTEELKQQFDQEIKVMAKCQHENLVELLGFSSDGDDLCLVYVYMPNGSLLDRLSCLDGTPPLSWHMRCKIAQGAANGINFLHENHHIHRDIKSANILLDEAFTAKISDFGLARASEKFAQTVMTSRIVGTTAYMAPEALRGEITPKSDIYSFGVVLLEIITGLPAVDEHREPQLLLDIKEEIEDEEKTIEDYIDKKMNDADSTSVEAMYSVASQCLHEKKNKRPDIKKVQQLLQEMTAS
Put plainly: Inhibition of N-terminal GST tagged human recombinant full-length IRAK4 expressed in Sf9 insect cells assessed as reduction in substrate phosphorylation using RP7030 peptide substrate and ATP incubated for 30 mins fluorescence polarization assay.

Assay [2] concerns the target High affinity nerve growth factor receptor (Homo sapiens) (UniProt P04629). Put plainly: Inhibition of TRKA (unknown origin).
The target in assay [3] is Mitogen-activated protein kinase kinase kinase kinase 4 (Homo sapiens) (UniProt O95819). Put plainly: Inhibition of MAP4K4 (unknown origin).
The target of assay [4] is BDNF/NT-3 growth factors receptor (Homo sapiens) (UniProt Q16620). Description: Inhibition of TRKB (unknown origin).
Assay [5] addresses Dual specificity protein kinase CLK4 (Homo sapiens) (UniProt Q9HAZ1). Put plainly: Inhibition of CLK4 (unknown origin).
For assay [6], the target named is Receptor-type tyrosine-protein kinase FLT3 (Homo sapiens) (UniProt P36888). Put plainly: Inhibition of FLT3 (unknown origin).
Assay [7] has as its target NT-3 growth factor receptor (Homo sapiens) (UniProt Q16288). Put plainly: Inhibition of TRKC (unknown origin).

Chain of Mitogen-activated protein kinase kinase kinase kinase 4 (Homo sapiens) (O95819 2-1239 limits assumed): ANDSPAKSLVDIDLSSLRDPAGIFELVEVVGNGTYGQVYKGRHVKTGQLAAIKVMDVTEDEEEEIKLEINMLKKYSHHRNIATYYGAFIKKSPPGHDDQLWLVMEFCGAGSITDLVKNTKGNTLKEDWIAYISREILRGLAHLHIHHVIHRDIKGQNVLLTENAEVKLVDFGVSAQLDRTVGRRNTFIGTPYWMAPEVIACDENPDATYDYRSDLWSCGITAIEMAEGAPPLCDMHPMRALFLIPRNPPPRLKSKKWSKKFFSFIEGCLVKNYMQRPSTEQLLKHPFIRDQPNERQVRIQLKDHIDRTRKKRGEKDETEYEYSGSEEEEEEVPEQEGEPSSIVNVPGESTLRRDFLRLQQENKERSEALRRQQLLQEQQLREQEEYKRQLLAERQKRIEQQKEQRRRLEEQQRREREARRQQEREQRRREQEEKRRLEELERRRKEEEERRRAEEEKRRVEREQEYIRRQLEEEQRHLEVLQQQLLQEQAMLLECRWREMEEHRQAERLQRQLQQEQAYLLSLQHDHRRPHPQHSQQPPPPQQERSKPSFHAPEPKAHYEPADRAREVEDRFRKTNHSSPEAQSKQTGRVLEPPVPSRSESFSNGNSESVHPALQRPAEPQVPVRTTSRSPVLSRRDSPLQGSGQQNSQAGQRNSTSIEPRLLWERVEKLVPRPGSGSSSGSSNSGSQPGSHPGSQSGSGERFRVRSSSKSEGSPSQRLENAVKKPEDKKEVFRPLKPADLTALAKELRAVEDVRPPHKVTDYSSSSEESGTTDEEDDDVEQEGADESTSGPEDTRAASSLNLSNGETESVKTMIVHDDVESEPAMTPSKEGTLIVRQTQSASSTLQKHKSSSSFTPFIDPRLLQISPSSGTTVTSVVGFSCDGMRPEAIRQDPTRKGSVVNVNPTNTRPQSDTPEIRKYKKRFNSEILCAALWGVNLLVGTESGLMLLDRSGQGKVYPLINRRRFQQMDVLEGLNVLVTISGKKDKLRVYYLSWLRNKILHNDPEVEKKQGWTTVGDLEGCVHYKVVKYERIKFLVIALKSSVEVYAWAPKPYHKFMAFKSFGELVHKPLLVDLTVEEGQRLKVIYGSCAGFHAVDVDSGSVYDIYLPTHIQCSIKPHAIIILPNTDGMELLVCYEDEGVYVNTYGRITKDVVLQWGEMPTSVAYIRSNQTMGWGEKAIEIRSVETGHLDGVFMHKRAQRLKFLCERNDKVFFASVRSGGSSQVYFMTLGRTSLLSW
Chain of Receptor-type tyrosine-protein kinase FLT3 (Homo sapiens) (P36888 whole entry): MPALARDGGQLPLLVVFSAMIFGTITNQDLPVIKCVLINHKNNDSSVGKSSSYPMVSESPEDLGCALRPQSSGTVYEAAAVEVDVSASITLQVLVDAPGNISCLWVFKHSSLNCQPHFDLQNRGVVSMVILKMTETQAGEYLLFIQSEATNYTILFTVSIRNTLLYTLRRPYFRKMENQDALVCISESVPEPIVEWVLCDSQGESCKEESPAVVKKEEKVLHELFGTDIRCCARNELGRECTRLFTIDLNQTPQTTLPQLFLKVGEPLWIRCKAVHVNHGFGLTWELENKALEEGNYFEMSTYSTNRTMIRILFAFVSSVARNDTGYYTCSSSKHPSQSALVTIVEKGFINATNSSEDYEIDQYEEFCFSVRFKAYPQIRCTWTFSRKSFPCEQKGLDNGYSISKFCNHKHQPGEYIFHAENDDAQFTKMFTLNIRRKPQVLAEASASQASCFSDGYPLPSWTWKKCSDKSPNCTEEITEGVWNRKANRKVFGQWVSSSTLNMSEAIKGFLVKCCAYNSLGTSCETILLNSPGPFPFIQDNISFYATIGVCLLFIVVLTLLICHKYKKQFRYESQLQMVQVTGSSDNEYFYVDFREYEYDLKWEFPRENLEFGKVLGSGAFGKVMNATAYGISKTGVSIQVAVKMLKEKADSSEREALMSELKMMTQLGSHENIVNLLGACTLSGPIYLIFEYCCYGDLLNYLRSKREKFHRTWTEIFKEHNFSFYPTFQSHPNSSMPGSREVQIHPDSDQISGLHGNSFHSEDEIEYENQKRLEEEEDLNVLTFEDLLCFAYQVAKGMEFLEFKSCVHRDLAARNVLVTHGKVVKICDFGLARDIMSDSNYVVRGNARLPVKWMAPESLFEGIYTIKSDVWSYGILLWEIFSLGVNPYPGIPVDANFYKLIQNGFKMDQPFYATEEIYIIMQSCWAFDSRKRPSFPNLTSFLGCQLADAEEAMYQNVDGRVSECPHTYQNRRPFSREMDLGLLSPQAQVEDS
Chain of Dual specificity protein kinase CLK4 (Homo sapiens) (Q9HAZ1 whole entry, looked up): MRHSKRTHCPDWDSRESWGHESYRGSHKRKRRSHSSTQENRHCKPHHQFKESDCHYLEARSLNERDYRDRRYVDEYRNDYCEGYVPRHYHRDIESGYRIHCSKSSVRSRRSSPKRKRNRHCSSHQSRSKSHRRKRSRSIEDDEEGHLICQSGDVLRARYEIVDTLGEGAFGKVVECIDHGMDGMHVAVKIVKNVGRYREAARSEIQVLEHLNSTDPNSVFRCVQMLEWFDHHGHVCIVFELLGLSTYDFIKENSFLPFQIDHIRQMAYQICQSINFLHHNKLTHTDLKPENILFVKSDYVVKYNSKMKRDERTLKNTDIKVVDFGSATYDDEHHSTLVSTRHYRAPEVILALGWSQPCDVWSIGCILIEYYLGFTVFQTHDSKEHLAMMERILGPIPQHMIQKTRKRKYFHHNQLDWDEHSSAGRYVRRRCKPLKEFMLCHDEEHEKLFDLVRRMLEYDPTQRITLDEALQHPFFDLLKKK
Chain of High affinity nerve growth factor receptor (Homo sapiens) (P04629 33-796 limits assumed): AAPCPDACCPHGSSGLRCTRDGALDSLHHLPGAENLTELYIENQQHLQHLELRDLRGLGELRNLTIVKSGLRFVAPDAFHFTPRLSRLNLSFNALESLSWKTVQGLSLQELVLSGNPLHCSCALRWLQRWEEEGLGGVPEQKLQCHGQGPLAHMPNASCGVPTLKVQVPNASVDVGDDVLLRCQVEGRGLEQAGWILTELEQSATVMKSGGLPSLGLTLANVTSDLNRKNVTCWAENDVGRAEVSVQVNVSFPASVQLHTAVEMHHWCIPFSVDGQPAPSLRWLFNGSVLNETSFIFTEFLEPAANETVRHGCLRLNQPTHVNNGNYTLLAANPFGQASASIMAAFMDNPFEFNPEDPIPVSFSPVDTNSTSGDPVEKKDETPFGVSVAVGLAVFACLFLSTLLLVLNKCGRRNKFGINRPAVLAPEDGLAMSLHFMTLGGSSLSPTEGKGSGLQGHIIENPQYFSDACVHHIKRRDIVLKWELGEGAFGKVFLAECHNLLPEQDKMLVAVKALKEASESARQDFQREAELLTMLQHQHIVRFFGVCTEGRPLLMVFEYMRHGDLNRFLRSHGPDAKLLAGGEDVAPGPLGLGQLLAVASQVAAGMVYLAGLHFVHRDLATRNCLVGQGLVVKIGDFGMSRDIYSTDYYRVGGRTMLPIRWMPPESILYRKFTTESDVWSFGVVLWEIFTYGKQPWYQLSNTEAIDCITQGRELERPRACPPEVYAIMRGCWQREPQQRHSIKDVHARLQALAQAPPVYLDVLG
Chain of BDNF/NT-3 growth factors receptor (Homo sapiens) (Q16620 32-822 limits assumed): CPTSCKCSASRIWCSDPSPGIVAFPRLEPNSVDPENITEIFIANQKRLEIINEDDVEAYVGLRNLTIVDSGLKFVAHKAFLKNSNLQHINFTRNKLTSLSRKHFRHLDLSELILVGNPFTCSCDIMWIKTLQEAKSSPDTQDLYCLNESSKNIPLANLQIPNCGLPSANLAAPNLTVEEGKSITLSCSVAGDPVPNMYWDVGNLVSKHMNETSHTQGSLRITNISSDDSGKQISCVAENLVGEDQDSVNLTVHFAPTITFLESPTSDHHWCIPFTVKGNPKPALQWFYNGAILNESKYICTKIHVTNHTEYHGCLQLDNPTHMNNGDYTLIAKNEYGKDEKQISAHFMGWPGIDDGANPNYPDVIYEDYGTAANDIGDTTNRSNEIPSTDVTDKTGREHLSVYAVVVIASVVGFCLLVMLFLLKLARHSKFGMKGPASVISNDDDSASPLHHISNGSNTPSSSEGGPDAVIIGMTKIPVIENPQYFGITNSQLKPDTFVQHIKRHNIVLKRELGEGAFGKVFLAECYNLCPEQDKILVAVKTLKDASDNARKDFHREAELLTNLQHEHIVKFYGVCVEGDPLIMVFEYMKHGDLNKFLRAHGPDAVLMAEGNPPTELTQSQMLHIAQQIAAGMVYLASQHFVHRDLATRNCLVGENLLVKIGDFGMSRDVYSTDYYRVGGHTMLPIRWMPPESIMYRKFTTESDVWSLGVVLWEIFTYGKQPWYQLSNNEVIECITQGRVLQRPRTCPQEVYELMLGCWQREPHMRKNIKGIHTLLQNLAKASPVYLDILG
Chain of NT-3 growth factor receptor (Homo sapiens) (Q16288 32-839 limits assumed): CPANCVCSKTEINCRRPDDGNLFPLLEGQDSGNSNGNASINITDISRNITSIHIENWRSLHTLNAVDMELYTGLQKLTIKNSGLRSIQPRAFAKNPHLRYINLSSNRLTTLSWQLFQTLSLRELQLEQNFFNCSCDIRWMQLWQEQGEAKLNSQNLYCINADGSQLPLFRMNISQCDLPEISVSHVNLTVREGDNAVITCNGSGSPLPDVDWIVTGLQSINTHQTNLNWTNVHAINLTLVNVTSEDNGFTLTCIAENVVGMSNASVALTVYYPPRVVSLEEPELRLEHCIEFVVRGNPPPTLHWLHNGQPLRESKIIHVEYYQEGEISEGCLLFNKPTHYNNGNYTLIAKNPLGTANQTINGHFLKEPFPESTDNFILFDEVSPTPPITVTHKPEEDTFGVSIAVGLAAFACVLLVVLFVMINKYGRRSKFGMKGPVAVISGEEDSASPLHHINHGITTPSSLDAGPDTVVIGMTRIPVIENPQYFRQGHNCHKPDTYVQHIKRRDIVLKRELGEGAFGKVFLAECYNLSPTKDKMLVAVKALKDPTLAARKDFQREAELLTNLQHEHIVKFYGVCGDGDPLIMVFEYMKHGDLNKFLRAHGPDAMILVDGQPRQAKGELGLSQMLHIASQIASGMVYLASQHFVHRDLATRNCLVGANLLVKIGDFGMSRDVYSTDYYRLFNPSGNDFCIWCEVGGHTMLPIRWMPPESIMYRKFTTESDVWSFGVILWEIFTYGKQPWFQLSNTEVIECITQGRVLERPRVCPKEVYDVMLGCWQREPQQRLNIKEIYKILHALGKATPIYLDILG

`Cc1nc(NCC2CC2)nc(N[C@@H]2C[C@H](CO)[C@@H](O)[C@H]2O)c1-c1nc2ccccc2s1`: the IC50 – broadly, the midpoint of a concentration-inhibition curve – in assay [1] was above 20000 nM. Moreover, the inhibition result in assay [2], in assay [3], in assay [4], in assay [5], in assay [6] and in assay [7] was “Active” in each case.
For the molecule `Nc1ncc(-c2ncc(-c3ccccc3)s2)c(N[C@@H]2C[C@H](CO)[C@@H](O)[C@H]2O)n1`, the IC50 in assay [1] was above 20000 nM. Moreover, the inhibition result in assay [2], in assay [3], in assay [4], in assay [5], in assay [6] and in assay [7] was “Active” each time.
`OC[C@H]1C[C@@H](Nc2nc(NC3CCC3)ncc2-c2nc3ccccc3s2)[C@H](O)[C@@H]1O`: the IC50 in assay [1] was 403 nM. The inhibition entry in assay [2], in assay [3], in assay [4], in assay [5], in assay [6] and in assay [7] was “Active” throughout.
As to `CCCNc1nc(C)c(-c2nc3ccccc3s2)c(N2CCOCC2)n1`, in assay [1], the IC50 is above 20000 nM. For the same molecule, the inhibition result in assay [2], in assay [3], in assay [4], in assay [5], in assay [6] and in assay [7] was “Active” in each case.
As to `CCc1nc(N)nc(N[C@@H]2C[C@H](CO)[C@@H](O)[C@H]2O)c1-c1nc2ccccc2s1`, the IC50 in assay [1] came out at 6850 nM. The inhibition entry in assay [2], in assay [3], in assay [4], in assay [5], in assay [6] and in assay [7] was “Active” throughout.
Regarding `N#Cc1nc(N)nc(N[C@@H]2C[C@H](CO)[C@@H](O)[C@H]2O)c1-c1nc2ccccc2s1`, the IC50 in assay [1] was above 20000 nM. Besides, the inhibition entry in assay [2], in assay [3], in assay [4], in assay [5], in assay [6] and in assay [7] was “Active” each time.
Regarding `Nc1ncc(-c2cnc3ccccn23)c(N[C@@H]2C[C@H](CO)[C@@H](O)[C@H]2O)n1`, the IC50 in assay [1] was 1140 nM. For the same molecule, the inhibition result in assay [2], in assay [3], in assay [4], in assay [5], in assay [6] and in assay [7] was “Active” each time.
For the molecule `Nc1ncc(-c2ccccc2)c(N[C@@H]2C[C@H](CO)[C@@H](O)[C@H]2O)n1`, the IC50 in assay [1] is above 20000 nM. For the same molecule, the inhibition entry in assay [2], in assay [3], in assay [4], in assay [5], in assay [6] and in assay [7] was “Active” throughout.
In the case of `CCCNc1ncc(-c2nc3ccccc3s2)c(N[C@@H]2C[C@H](CO)[C@@H](O)[C@H]2O)n1`, in assay [1], the IC50 came to 1190 nM. Besides, the inhibition result in assay [2], in assay [3], in assay [4], in assay [5], in assay [6] and in assay [7] was “Active” each time.
`OC[C@H]1C[C@@H](Nc2nc(NC3CCOCC3)ncc2-c2nc3ccccc3s2)[C@H](O)[C@@H]1O`: the IC50 in assay [1] is 1080 nM. Further, the inhibition entry in assay [2], in assay [3], in assay [4], in assay [5], in assay [6] and in assay [7] was “Active” each time.
With `Nc1ncc(-c2nccs2)c(N[C@@H]2C[C@H](CO)[C@@H](O)[C@H]2O)n1`, the IC50 in assay [1] turned out to be 4700 nM. Also, the inhibition result in assay [2], in assay [3], in assay [4], in assay [5], in assay [6] and in assay [7] was “Active” throughout.
For the molecule `Cc1nc(N)nc(N[C@@H]2C[C@H](CO)[C@@H](O)[C@H]2O)c1-c1nc2ccccc2s1`, the IC50 in assay [1] was determined as 1060 nM. In addition, the inhibition entry in assay [2], in assay [3], in assay [4], in assay [5], in assay [6] and in assay [7] was “Active” in each case.
With `Nc1nc(N)c(-c2nc3ccccc3s2)c(N[C@@H]2C[C@H](CO)[C@@H](O)[C@H]2O)n1`, in assay [1], the IC50 is 5190 nM. The inhibition entry in assay [2], in assay [3], in assay [4], in assay [5], in assay [6] and in assay [7] was “Active” in each case.
Turning to `Nc1nc(N[C@@H]2C[C@H](CO)[C@@H](O)[C@H]2O)c(-c2nc3ccccc3s2)c(C(F)(F)F)n1`, the IC50 in assay [1] was above 20000 nM. Further, the inhibition entry in assay [2], in assay [3], in assay [4], in assay [5], in assay [6] and in assay [7] was “Active” throughout.
As for `OC[C@H]1C[C@@H](Nc2nc(Nc3ccccc3)ncc2-c2nc3ccccc3s2)[C@H](O)[C@@H]1O`, the IC50 in assay [1] amounted to 42000 nM. Also, the inhibition entry in assay [2], in assay [3], in assay [4], in assay [5], in assay [6] and in assay [7] was “Active” in each case.
`Nc1nc(Cl)c(-c2nc3ccccc3s2)c(N[C@@H]2C[C@H](CO)[C@@H](O)[C@H]2O)n1`: the IC50 in assay [1] turned out to be 170 nM. For the same molecule, the inhibition result in assay [2], in assay [3], in assay [4], in assay [5], in assay [6] and in assay [7] was “Active” throughout.
For `OC[C@H]1C[C@@H](Nc2nc(Nc3cncnc3)ncc2-c2nc3ccccc3s2)[C@H](O)[C@@H]1O`, the IC50 in assay [1] was 6000 nM. Moreover, the inhibition result in assay [2], in assay [3], in assay [4], in assay [5], in assay [6] and in assay [7] was “Active” in each case.
`OC[C@H]1C[C@@H](Nc2nc(NC3CCCCC3)ncc2-c2nc3ccccc3s2)[C@H](O)[C@@H]1O`: the IC50 in assay [1] is 3010 nM. The inhibition result in assay [2], in assay [3], in assay [4], in assay [5], in assay [6] and in assay [7] was “Active” in each case.
With `COCCCNc1ncc(-c2nc3ccccc3s2)c(N[C@@H]2C[C@H](CO)[C@@H](O)[C@H]2O)n1`, in assay [1], the IC50 was found to be 228 nM. Besides, the inhibition entry in assay [2], in assay [3], in assay [4], in assay [5], in assay [6] and in assay [7] was “Active” each time.
`CCCNc1nc(C)c(-c2nc3ccccc3s2)c(N[C@@H]2C[C@H](CO)[C@@H](O)[C@H]2O)n1`: the IC50 in assay [1] turned out to be 240 nM. In addition, the inhibition entry in assay [2], in assay [3], in assay [4], in assay [5], in assay [6] and in assay [7] was “Active” each time.
As for `Nc1ncc(-c2ccccn2)c(N[C@@H]2C[C@H](CO)[C@@H](O)[C@H]2O)n1`, the IC50 in assay [1] came to 830 nM. For the same molecule, the inhibition result in assay [2], in assay [3], in assay [4], in assay [5], in assay [6] and in assay [7] was “Active” each time.
On to `Cc1cc(Nc2ncc(-c3nc4ccncc4s3)c(N[C@@H]3C[C@H](CO)[C@@H](O)[C@H]3O)n2)cc(C)n1`, for which the IC50 in assay [1] came out at 300 nM. Further, the inhibition entry in assay [2], in assay [3], in assay [4], in assay [5], in assay [6] and in assay [7] was “Active” throughout.
